Measurements reported in ChEMBL document CHEMBL1201862, “PubChem BioAssay data set” (2004).
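Exposure lasted 48 hours, with cells grown in 96-well plates and compounds tested at five concentrations. GI50 marks 50% less growth.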 Activity calls are given as the source filed them. Cut-off read from the data, not from the text of the source: active = GI50 up to about 1.1 µM and inactive = higher.

How the values were obtained:
Assay in all cases: NCI-60 cell line screen, 48 h
SW-620 = system: SW-620
NCI/ADR-RES = system: NCI/ADR-RES
KM12 = system: KM12
UACC-62 = system: UACC-62
DU-145 = system: DU-145
COLO 205 = system: COLO 205
HOP-62 = system: HOP-62
U-251 = system: U-251
SF-295 = system: SF-295
PC-3 = system: PC-3
A549 = system: A549
HOP-92 = system: HOP-92
MDA-N = system: MDA-N
HT-29 = system: HT-29
Malme-3M = system: Malme-3M
K562 = system: K562
EKVX = system: EKVX
HCT-15 = system: HCT-15
SK-MEL-5 = system: SK-MEL-5

Row | SMILES | GI50 (SW-620) | GI50 (NCI/ADR-RES) | GI50 (KM12) | GI50 (UACC-62) | GI50 (DU-145) | GI50 (COLO 205) | GI50 (HOP-62) | GI50 (U-251) | GI50 (SF-295) | GI50 (PC-3) | GI50 (A549) | GI50 (HOP-92) | GI50 (MDA-N) | GI50 (HT-29) | GI50 (Malme-3M) | GI50 (K562) | GI50 (EKVX) | GI50 (HCT-15) [µM] | GI50 (SK-MEL-5)
1 | COc1ccc(-c2cc(O)c3nc4ccccc4n3c2)cc1 | > 100 µM (inactive) | > 100 µM (inactive) | > 100 µM (inactive) | > 100 µM (inactive) | > 100 µM (inactive) | > 100 µM (inactive) | > 100 µM (inactive) | > 100 µM (inactive) | > 100 µM (inactive) | > 100 µM (inactive) | > 100 µM (inactive) | > 100 µM (inactive) | > 100 µM (inactive) | > 100 µM (inactive) | > 100 µM (inactive) | > 100 µM (inactive) | > 100 µM (inactive) | > 100 | –
2 | CC(C)=CCNc1ncnc2c1ncn2CCC(=O)OC(C)(C)C | > 100 µM (inactive) | 42.9 µM (inactive) | > 100 µM (inactive) | 38.3 µM (inactive) | > 100 µM (inactive) | > 100 µM (inactive) | > 100 µM (inactive) | 63.8 µM (inactive) | > 100 µM (inactive) | 34.8 µM (inactive) | > 100 µM (inactive) | 49.7 µM (inactive) | > 100 µM (inactive) | > 100 µM (inactive) | > 100 µM (inactive) | 18.4 µM (inactive) | – | > 100 | 21.4 µM (inactive)
3 | Cc1cn(Cc2cccc(C3=NCCCN3)c2)c(=O)n(Cc2cccc(C3=NCCCN3)c2)c1=O | > 100 µM (inactive) | > 100 µM (inactive) | > 100 µM (inactive) | > 100 µM (inactive) | > 100 µM (inactive) | > 100 µM (inactive) | > 100 µM (inactive) | > 100 µM (inactive) | > 100 µM (inactive) | > 100 µM (inactive) | > 100 µM (inactive) | > 100 µM (inactive) | > 100 µM (inactive) | – | > 100 µM (inactive) | > 100 µM (inactive) | > 100 µM (inactive) | > 100 | > 100 µM (inactive)
4 | O=C1/C(=C/c2ccccc2)CCc2ccccc21 | 13.9 µM (inactive) | 28.4 µM (inactive) | 18 µM (inactive) | 17.9 µM (inactive) | 16.2 µM (inactive) | 19.6 µM (inactive) | 15.7 µM (inactive) | 16.2 µM (inactive) | 17.7 µM (inactive) | 19 µM (inactive) | 22.7 µM (inactive) | – | 16.2 µM (inactive) | 16.6 µM (inactive) | 16.6 µM (inactive) | 6.97 µM (inactive) | 17.8 µM (inactive) | 25.6 | 17.7 µM (inactive)
5 | CC[C@H](C)C(=O)O[C@H]1CCC=C2C=C[C@H](C)[C@H](CC[C@@H]3C[C@@H](O)CC(=O)O3)[C@H]21 [MEVASTATIN] | 24.7 µM (inactive) | 10.3 µM (inactive) | 37 µM (inactive) | 5.68 µM (inactive) | > 92.3 µM (inactive) | 12.9 µM (inactive) | > 100 µM (inactive) | 3.62 µM (inactive) | 3.27 µM (inactive) | 2.26 µM (inactive) | 27.4 µM (inactive) | – | > 100 µM (inactive) | 36.7 µM (inactive) | 34.1 µM (inactive) | 30.1 µM (inactive) | > 38.9 µM (inactive) | 4.06 | 20.6 µM (inactive)
6 | Cc1ccc(C(=C2Sc3ccccc3S2)C(=C2Sc3ccccc3S2)c2ccc(C)s2)s1 | > 100 µM (inactive) | > 100 µM (inactive) | > 100 µM (inactive) | > 100 µM (inactive) | > 100 µM (inactive) | > 100 µM (inactive) | > 100 µM (inactive) | > 100 µM (inactive) | > 100 µM (inactive) | > 100 µM (inactive) | > 100 µM (inactive) | – | > 100 µM (inactive) | > 100 µM (inactive) | > 100 µM (inactive) | > 100 µM (inactive) | > 100 µM (inactive) | > 100 | > 100 µM (inactive)
7 | CC[C@H]1C[C@@H](O)[C@@H]2[C@H](O)[C@H](O)CN2C1 | > 100 µM (inactive) | > 100 µM (inactive) | > 100 µM (inactive) | – | > 100 µM (inactive) | – | – | > 100 µM (inactive) | > 100 µM (inactive) | > 100 µM (inactive) | > 100 µM (inactive) | > 100 µM (inactive) | > 100 µM (inactive) | > 100 µM (inactive) | > 100 µM (inactive) | > 100 µM (inactive) | > 100 µM (inactive) | > 100 | > 100 µM (inactive)
8 | CC(C)C1=C(Cc2ccccc2)C(=O)O/C1=C\c1ccc(O)c(Cl)c1 | 19.1 µM (inactive) | > 10 µM (inactive) | 18.1 µM (inactive) | 14.8 µM (inactive) | 18.2 µM (inactive) | 20.4 µM (inactive) | 17.7 µM (inactive) | 16.7 µM (inactive) | 16 µM (inactive) | 17.9 µM (inactive) | 15.1 µM (inactive) | – | 16.5 µM (inactive) | 18.8 µM (inactive) | 15.8 µM (inactive) | 16 µM (inactive) | 16.6 µM (inactive) | 16 | 16.7 µM (inactive)
9 | COc1ccc(C2=NN(C(=O)c3ccc(Cl)cc3)C(O)(c3cc(F)c(Cl)cc3Cl)C2)cc1OC (stereo not drawn) | 6.97 µM (inactive) | 9.77 µM (inactive) | 8.15 µM (inactive) | – | 8.51 µM (inactive) | – | 99.8 µM (inactive) | 19.2 µM (inactive) | 26 µM (inactive) | 6.44 µM (inactive) | – | 13.2 µM (inactive) | 15.5 µM (inactive) | 4.29 µM (inactive) | – | 5.82 µM (inactive) | 27.7 µM (inactive) | 8.28 | 33.1 µM (inactive)
10 | CC1(C)Oc2ccc3c(=O)cc(-c4ccccc4)oc3c2C1C(=O)O (stereo not drawn) | – | > 100 µM (inactive) | – | > 100 µM (inactive) | > 100 µM (inactive) | > 100 µM (inactive) | > 100 µM (inactive) | > 100 µM (inactive) | > 100 µM (inactive) | > 100 µM (inactive) | > 100 µM (inactive) | – | > 100 µM (inactive) | > 100 µM (inactive) | > 100 µM (inactive) | > 100 µM (inactive) | > 100 µM (inactive) | > 100 | > 100 µM (inactive)
11 | CCCN(CCCc1ccccc1)CCc1ccc2[nH]c(=S)[nH]c2c1 | 27 µM (inactive) | 20.5 µM (inactive) | 26.1 µM (inactive) | 31 µM (inactive) | 44.3 µM (inactive) | 16.8 µM (inactive) | 26.5 µM (inactive) | 33.4 µM (inactive) | 12.4 µM (inactive) | 41.6 µM (inactive) | 34 µM (inactive) | 8.87 µM (inactive) | 19.2 µM (inactive) | – | 12.9 µM (inactive) | 2.02 µM (inactive) | 58.9 µM (inactive) | 25.8 | –
12 | N#C/C(=C\c1cc(Cl)cc(Cl)c1)c1ccccn1 | 15.6 µM (inactive) | 3.93 µM (inactive) | 9.59 µM (inactive) | 12 µM (inactive) | 70.6 µM (inactive) | 31.8 µM (inactive) | 20 µM (inactive) | 7.94 µM (inactive) | 10.5 µM (inactive) | 11.3 µM (inactive) | 18.9 µM (inactive) | – | 10.1 µM (inactive) | 18.2 µM (inactive) | > 100 µM (inactive) | 3.95 µM (inactive) | 3.46 µM (inactive) | 4.75 | 8.51 µM (inactive)
